Measurements from patent publication US20160242416A1, “FUNGICIDAL ISOXAZOLINE CARBINOLS” (E I DU PONT DE NEMOURS AND COMPANY, priority 2015, published 2016).
Like-named read-outs stand apart in the source and are kept apart here.

Columns and labels:
Zymoseptoria tritici = test: Test E: wheat leaf blotch, preventive spray on wheat seedlings; details: wheat leaf blotch, 100 = 100% disease control, 0 = no control
[1] = system: Puccinia recondita f sp. tritici; test: Test F: wheat leaf rust, preventive spray on wheat seedlings; details: wheat leaf rust, 100 = 100% disease control, 0 = no control
Phytophthora infestans = format: in vivo; details: tomato late blight, 100 = 100% disease control, 0 = no control
Stagonospora nodorum = test: Test D: wheat glume blotch, preventive spray on wheat seedlings; details: wheat glume blotch, 100 = 100% disease control, 0 = no control
Botrytis cinerea = test: Test B: gray mold, preventive spray on tomato seedlings; details: gray mold on tomato, 100 = 100% disease control, 0 = no control
Plasmopara viticola = test: Test A: grape downy mildew, preventive spray on grape seedlings; format: in vivo; details: 100 = 100% disease control, 0 = no control
From the text: A dash (-) indicates no test results.

[2] = system: Erysiphe graminis f sp. tritici; test: Test G: wheat powdery mildew, preventive spray on wheat seedlings; details: wheat powdery mildew, 100 = 100% disease control, 0 = no control
From the text: General protocol for preparing test solutions for Tests A-G: the test compounds were first dissolved in acetone in an amount equal to 3% of the final volume and then suspended at the desired concentration (in ppm) in acetone and purified water (50/50 mix by volume) containing 250 ppm of the surfactant PEG400 (polyhydric alcohol esters). The resulting test suspensions were then used in Tests A-G. Compounds were sprayed at a concentration of 50 ppm (*) or 10 ppm to the point of run-off on the test plants, the equivalent of a rate of 200 g/ha or 40 g/ha, respectively.
The test solution was sprayed to the point of run-off on wheat seedlings. The following day the seedlings were inoculated with a spore dust of Erysiphe graminis f sp. tritici, (the causal agent of wheat powdery mildew) and incubated in a growth chamber at 20° C. for 8 days, after which time visual disease ratings were made.
Compounds with an asterisks (*) were applied at a concentration of 50 ppm, otherwise test solutions were applied at 10 ppm.

SMILES	Test E rating (% disease control) (Zymoseptoria tritici; 10 ppm) [%]	Test F rating (% disease control) ([1]; 10 ppm) [%]	Test C rating (% disease control) (Phytophthora infestans; 10 ppm) [%]	Test D rating (% disease control) (Stagonospora nodorum; 10 ppm) [%]	Test B rating (% disease control) (Botrytis cinerea; 10 ppm) [%]	Test A rating (% disease control) (Plasmopara viticola; 10 ppm) [%]	Test G rating (% disease control) ([2]; 10 ppm) [%]	Test E rating (% disease control) (Zymoseptoria tritici; 50 ppm (asterisk)) [%]	Test F rating (% disease control) ([1]; 50 ppm (asterisk)) [%]	Test C rating (% disease control) (Phytophthora infestans; 50 ppm (asterisk)) [%]	Test D rating (% disease control) (Stagonospora nodorum; 50 ppm (asterisk)) [%]	Test B rating (% disease control) (Botrytis cinerea; 50 ppm (asterisk)) [%]	Test A rating (% disease control) (Plasmopara viticola; 50 ppm (asterisk)) [%]	Test G rating (% disease control) ([2]; 50 ppm (asterisk)) [%]
OC(Cn1cncn1)(C1=NOC(COc2ccc(C(F)(F)F)cc2)C1)c1ccc(Cl)cc1 (single isomer, unassigned) [Compound 63]	97	100	0	41	0	3	100	–	–	–	–	–	–	–
OC(Cn1cncn1)(C1=NOC(COc2ccc(Cl)cc2)C1)c1ccc(Cl)cc1 (single isomer, unassigned) [Compound 62]	0	92	0	0	0	3	96	–	–	–	–	–	–	–
CCCC(O)(Cn1cncn1)C1=NOC(c2ccc(Cl)cc2)C1 (single isomer, unassigned) [Compound 82]	0	98	0	99	33	1	100	–	–	–	–	–	–	–
C=CCC(O)(Cn1cncn1)C1=NOC(c2ccc(Cl)cc2)C1 (single isomer, unassigned) [Compound 84]	0	9	0	73	94	11	95	–	–	–	–	–	–	–
C=CCC(O)(Cn1cncn1)C1=NOC(c2ccc(Cl)cc2)C1 (single isomer, unassigned) [Compound 85]	0	0	0	68	0	19	87	–	–	–	–	–	–	–
OC(Cc1ccc(Cl)cc1)(Cn1cncn1)C1=NOC(c2ccc(Cl)cc2)C1 (single isomer, unassigned) [Compound 94]	0	100	0	98	0	0	99	–	–	–	–	–	–	–
CC(C)C(O)(Cn1cncn1)C1=NOC(c2ccc(Cl)cc2)C1 (single isomer, unassigned) [Compound 3]	0	97	0	100	46	9	100	–	–	–	–	–	–	–
CCC(O)(Cn1cncn1)C1=NOC(c2ccc(Cl)cc2)C1 (mixture of isomers) [Compound 34]	–	–	–	–	–	–	–	0	53	0	99	0	34	100
OC(Cn1cncn1)(C1=NOC(COc2ccc(C(F)(F)F)cc2)C1)c1ccc(Cl)cc1 (single isomer, unassigned) [Compound 64]	2	80	0	50	0	12	94	–	–	–	–	–	–	–
CC(C)C(O)(Cn1cncn1)C1=NOC(c2ccc(Cl)cc2)C1 (single isomer, unassigned) [Compound 4]	0	98	0	100	9	0	99	–	–	–	–	–	–	–
OC(Cn1cncn1)(C1=NOC(c2ccccc2)C1)c1ccccc1 (mixture of isomers) [Compound 115]	–	–	–	–	–	–	–	0	68	0	100	51	–	99
